# Results: publication PMC6362833 (ACS chemical neuroscience, 2017)
# Values joined by “and” are separate entries in the source; they are usually repeats but may differ in a detail not shown here. Identical values can stand only once.
# How the values were obtained:
# AC8 = AC8 (Homo sapiens, UniProt P40145); experiment: CaM-stimulated AC8 activity in membrane preparations; format: biochemical; settings: for inhibition at 100 µM: read-out: AC8 % inhibition; for potency against AC8 compared with AC1: membrane preparations
# [1] = target: (Homo sapiens, UniProt P0DP23); experiment: CaM-stimulated AC1 activity in membrane preparations; format: biochemical; settings: read-out: AC1 % inhibition
# AC1 [2] = experiment: as above; format: biochemical; settings: membranes of HEK293 cells stably expressing AC1, CaM-stimulated
# CaM/AC8-C2b interaction = CaM/AC8-C2b interaction (Homo sapiens, UniProt P0DP23); experiment: Fluorescence polarization; format: binding; settings: for IC50: FP; for inhibition of CaM/AC8-C2b relative to EGTA control: maximal inhibition, no detergent
# HEK-293T cells = experiment: CytoTox-Fluor acute cytotoxicity assay; format: cell-based; settings: 30 min; for effect on cell viability: up to 31.6 μM
# CaM/AC8-Nt interaction = CaM/AC8-Nt interaction (Homo sapiens, UniProt P0DP23); experiment: Fluorescence polarization; format: binding; settings: for IC50: FP; for slope of concentration-response curve: FP concentration response
# AC1 [3] = target: AC1 (Homo sapiens, UniProt Q08828); experiment: CaM-stimulated AC1 activity in membrane preparations; format: biochemical
# CaM/AC8 complex = CaM/AC8 complex (Homo sapiens, UniProt P0DP23); experiment: AC8/CaM NanoBiT complementation assay in HEK-293T cells; format: cell-based, rat AC8; settings: 30 min pretreatment
# [4] = CytoTox-Fluor acute cytotoxicity assay; format: cell-based; settings: human, HEK293T cells, pH 7.4
# HERG potassium channel = settings: cited from earlier work
# L-type Ca^2+ channels = settings: cited from earlier work
# [5] = target: GST-tagged calmodulin (N-terminally 6X-His-GST-tagged human CaM, residues 1-149) (human) (UniProt P0DP23); experiment: fluorescence polarisation
# [6] = AC8-C2b pIC50, 0% Triton, 316 nM GST-CaM, 100 nM Cy5-AC8-C2b, no Triton X-100
# [7] = AC8-C2b pIC50, 0.01% Triton, 0.01% Triton X-100
# [8] = AC8-Nt pIC50, 0% Triton, 316 nM GST-CaM, 100 nM Cy5-AC8-Nt, no Triton X-100
# [9] = AC8-Nt pIC50, 0.01% Triton, 0.01% Triton X-100
# AC8, sequence (P40145 whole entry): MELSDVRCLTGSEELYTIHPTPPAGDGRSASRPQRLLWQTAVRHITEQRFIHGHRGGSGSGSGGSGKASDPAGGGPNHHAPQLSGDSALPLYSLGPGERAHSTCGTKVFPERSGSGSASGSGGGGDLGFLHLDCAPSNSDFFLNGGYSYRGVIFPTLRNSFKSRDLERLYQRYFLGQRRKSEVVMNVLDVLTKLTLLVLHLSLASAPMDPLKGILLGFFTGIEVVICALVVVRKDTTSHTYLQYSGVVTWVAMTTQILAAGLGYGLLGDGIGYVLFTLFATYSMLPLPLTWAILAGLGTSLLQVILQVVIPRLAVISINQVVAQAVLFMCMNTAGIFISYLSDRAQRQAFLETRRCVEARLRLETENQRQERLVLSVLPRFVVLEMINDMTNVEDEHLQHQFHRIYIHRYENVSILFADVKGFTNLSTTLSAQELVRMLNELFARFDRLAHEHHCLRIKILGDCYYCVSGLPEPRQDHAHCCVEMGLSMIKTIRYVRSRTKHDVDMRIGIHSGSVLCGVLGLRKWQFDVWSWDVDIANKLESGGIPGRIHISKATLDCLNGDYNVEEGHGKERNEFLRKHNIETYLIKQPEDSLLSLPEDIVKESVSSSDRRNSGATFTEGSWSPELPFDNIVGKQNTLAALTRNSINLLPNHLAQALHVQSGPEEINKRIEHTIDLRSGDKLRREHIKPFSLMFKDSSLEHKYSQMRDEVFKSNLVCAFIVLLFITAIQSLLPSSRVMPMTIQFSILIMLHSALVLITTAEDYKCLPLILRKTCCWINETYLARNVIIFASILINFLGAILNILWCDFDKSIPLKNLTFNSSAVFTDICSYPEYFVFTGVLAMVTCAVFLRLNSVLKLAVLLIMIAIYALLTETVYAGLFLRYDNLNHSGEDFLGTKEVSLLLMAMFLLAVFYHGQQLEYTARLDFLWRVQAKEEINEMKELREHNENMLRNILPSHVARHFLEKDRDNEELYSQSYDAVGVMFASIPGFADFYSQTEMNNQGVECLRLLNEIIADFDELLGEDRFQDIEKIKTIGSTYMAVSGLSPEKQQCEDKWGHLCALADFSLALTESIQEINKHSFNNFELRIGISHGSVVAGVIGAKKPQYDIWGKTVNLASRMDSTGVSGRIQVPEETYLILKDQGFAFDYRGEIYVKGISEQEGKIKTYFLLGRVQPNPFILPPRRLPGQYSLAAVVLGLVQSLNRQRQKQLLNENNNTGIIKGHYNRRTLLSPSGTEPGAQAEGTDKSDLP
# AC1, sequence (Q08828 whole entry): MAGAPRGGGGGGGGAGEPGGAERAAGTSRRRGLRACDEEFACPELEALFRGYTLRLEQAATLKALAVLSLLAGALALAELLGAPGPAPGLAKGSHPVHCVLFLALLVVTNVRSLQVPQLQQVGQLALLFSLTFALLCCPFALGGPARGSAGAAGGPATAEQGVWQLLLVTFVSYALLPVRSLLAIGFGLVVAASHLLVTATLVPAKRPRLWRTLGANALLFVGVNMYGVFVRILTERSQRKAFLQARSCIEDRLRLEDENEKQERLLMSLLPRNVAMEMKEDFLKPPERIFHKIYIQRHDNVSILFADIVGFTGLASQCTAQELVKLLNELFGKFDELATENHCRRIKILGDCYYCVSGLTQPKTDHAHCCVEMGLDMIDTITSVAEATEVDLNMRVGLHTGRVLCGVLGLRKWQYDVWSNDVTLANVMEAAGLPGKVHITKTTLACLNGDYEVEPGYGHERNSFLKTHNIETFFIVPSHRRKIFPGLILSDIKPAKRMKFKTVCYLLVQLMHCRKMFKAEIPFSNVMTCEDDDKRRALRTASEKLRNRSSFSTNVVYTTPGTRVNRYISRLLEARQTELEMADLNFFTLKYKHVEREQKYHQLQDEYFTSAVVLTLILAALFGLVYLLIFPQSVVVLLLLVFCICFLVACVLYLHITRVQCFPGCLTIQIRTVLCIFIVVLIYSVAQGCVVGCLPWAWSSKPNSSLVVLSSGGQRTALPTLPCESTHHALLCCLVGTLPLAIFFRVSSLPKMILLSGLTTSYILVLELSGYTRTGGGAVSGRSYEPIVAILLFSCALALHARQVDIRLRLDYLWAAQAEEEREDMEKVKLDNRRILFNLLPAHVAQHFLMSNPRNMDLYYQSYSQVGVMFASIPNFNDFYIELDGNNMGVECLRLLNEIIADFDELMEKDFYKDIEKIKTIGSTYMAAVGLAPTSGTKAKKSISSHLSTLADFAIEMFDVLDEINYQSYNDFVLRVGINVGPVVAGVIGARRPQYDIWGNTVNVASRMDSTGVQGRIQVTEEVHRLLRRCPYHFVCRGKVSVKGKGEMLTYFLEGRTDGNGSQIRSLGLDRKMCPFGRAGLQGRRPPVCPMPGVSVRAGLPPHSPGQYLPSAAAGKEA
# AC1 (Homo sapiens, UniProt Q08828), sequence (Q08828 whole entry): as above
Compound,IC50 (AC8) [µM],inhibition at 100 µM (AC8) [%],inhibition at 100 µM [1] [%],AC1 pIC50 (AC1 [2]),effect on cell viability (HEK-293T cells),IC50 (CaM/AC8-Nt interaction; [8]),IC50 (CaM/AC8-Nt interaction; [9]) [µM],also measured
"Clc1ccc(C(c2ccc(Cl)cc2)n2cc[n+](CC(OCc3ccc(Cl)cc3Cl)c3ccc(Cl)cc3Cl)c2)cc1 (stereo not drawn) [CDZ, calmidazolium chloride]",4.68,100,97 ± 3,4.87 ± 0.06,appreciable cell toxicity at 31.6 μM,2.75 µM and 2.82 µM,2.88,"effect of Triton X-100 on inhibition of CaM/AC8-C2b (CaM/AC8-C2b interaction; 0.01% Triton X-100): Increased inhibition; IC50 (CaM/AC8-C2b interaction; [6]): 3.16 µM; IC50 (CaM/AC8-C2b interaction; [7]): 9.77 µM; inhibition of CaM/AC8-C2b relative to EGTA control (CaM/AC8-C2b interaction): approximately 50%; inhibition of CaM/AC8-Nt FP (CaM/AC8-Nt interaction; concentration response up to 100 μM, relative to EGTA control): complete inhibition"
"CN1CCN(CCCN2c3ccccc3Sc3ccc(C(F)(F)F)cc32)CC1 [TFP, trifluoperazine]",–,–,–,–,without negatively affecting cell viability,–,–,–
"NCCCCCCNS(=O)(=O)c1cccc2c(Cl)cccc12 [W7, N-(6-aminohexyl)-5-chloro-1-naphthalenesulfonamide]",–,–,–,–,without negatively affecting cell viability,–,–,–
CCCCC(CC)CNC(=N)NC(=N)NCCCCCCNC(=N)NC(=N)NCC(CC)CCCC (stereo not drawn) [alexidine],4.9,106 ± 2,162 ± 10,5.24 ± 0.1,–,2.14 µM,1.41,IC50 (CaM/AC8-C2b interaction; [6]): 5.89 µM; IC50 (CaM/AC8-C2b interaction; [7]): 5.89 µM; concentration at which cell viability begins to be reduced (HEK-293T cells; HEK-293T): ≥ 10 µM; slope of concentration-response curve (CaM/AC8-Nt interaction): −2.7 ± 0.2
"CC(C)(C)CC(C)(C)c1ccc(OCCOCC[N+](C)(C)Cc2ccccc2)cc1 [benzethonium, Benzethonium chloride]",–,–,–,–,no negative effect on cell viability,–,–,–
"CCCCCCCCCCCCCCCC[N+](C)(C)C [cetrimonium, cetrimonium bromide]",22.4,102 ± 2,–,–,–,11.5 µM,11.5,"potency against AC8 compared with AC1 (AC8): slightly more potent against AC8 than AC1; IC50 (AC1 [3]): 39.8 µM; inhibition at 100 µM (AC1 [3]; read-out: AC1 % inhibition): 86 ± 7%; NanoBiT potency (CaM/AC8 complex): potencies similar to that observed for CDZ; viability at 30 min, 31.6 µM [4]: 89%"
"CCCCCCCCCCCC[N+](C)(C)CCOc1ccccc1 [domiphen, Domiphen bromide]",17.4,104 ± 1,96 ± 4,4.55 ± 0.09,–,14.5 µM,15.5,"viability at 30 min, 31.6 µM [4]: 99%; IC50 at HERG potassium channel (HERG potassium channel): single-digit nanomolar"
"CCCCCCCCOc1ccccc1C(=O)Nc1ccc(C(=O)OCC[N+](C)(CC)CC)cc1 [otilonium, otilonium bromide]",24,99 ± 1,103 ± 4,4.58 ± 0.03,–,16.6 µM,33.1,"viability at 30 min, 31.6 µM [4]: 77%; slope of concentration-response curve (CaM/AC8-Nt interaction): −3.5 ± 0.2; IC50 at L-type Ca2+ channels (L-type Ca^2+ channels): single-digit micromolar"
"CCCCCCCCCCCCCCCC[N+](C)(C)CCN(Cc1ccc(OC)cc1)c1ncccn1 [thonzonium, Thonzonium bromide]",38.9,91 ± 1,77 ± 6,4.20 ± 0.06,did not adversely affect cell viability,5.37 µM,9.12,potency against AC8 compared with AC1 (AC8): slightly more potent against AC8 than AC1; NanoBiT potency (CaM/AC8 complex): potencies similar to that observed for CDZ; effect of Triton X-100 on inhibition of CaM/AC8-C2b (CaM/AC8-C2b interaction; 0.01% Triton X-100): Increased inhibition; IC50 (CaM/AC8-C2b interaction; [6]): 10 µM; IC50 (CaM/AC8-C2b interaction; [7]): 12.6 µM; inhibition of CaM/AC8-C2b relative to EGTA control (CaM/AC8-C2b interaction): approximately 50%
unlabeled AC8-C2b peptide (from UniProt P40145 1191-1214),–,–,–,–,–,–,–,pIC50 [5]: 4.95
unlabeled AC8-Nt peptide (from UniProt P40145 30-54),–,–,–,–,–,–,–,pIC50 [5]: 5.3
